Test results as given in PMC5421785, “Citrullination only infrequently impacts peptide binding to HLA class II MHC” (PLoS ONE, 2017).
Like-named read-outs stand apart in the source and are kept apart here. Ends that are not written are not given here.

Columns and labels:
Assay in all cases: HLA class II peptide binding, inhibition of radiolabeled peptide binding to purified MHC
DPB1*04:01 = biological target: T1, DPB1*04:01 (Homo sapiens, UniProt P04440+P20036)
T1 construct: EBV transformed homozygous cell lines were used as sources of MHC molecules; endogenous in cells; host or cells: EBV transformed homozygous cell lines
T1 sequence (P04440 30-258): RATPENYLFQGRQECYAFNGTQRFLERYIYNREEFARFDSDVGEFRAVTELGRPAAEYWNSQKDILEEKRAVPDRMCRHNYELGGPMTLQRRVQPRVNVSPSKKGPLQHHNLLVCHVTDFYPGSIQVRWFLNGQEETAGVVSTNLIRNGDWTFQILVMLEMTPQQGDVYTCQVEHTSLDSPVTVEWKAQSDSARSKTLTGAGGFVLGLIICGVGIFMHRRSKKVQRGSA
T1 sequence (P20036 29-260 partner): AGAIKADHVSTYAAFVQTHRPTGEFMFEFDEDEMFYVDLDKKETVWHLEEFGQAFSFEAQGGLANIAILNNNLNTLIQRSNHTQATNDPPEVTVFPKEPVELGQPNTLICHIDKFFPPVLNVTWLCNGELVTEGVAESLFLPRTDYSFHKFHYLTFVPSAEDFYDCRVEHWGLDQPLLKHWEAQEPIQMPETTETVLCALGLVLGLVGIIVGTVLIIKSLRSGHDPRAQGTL

HLA-DRB1*01:01 = biological target: T2, HLA-DRB1*01:01 (Homo sapiens, UniProt P01903+P01911, A100R/D57E/F55L/F60I/F76Y/I96L/L162R/M171V/P40L/Q125E/R42F/V115G/Y59C); details: read-out: DRB1*01:01 binding capacity, WT peptide (IC50 nM)
T2 construct: EBV transformed homozygous cell lines were used as sources of MHC molecules; endogenous in cells; host or cells: EBV transformed homozygous cell lines

HLA-DRB1*04:01 = biological target: T3, HLA-DRB1*04:01 (Homo sapiens, UniProt P01903+P01911, A100K/A169T/F76Y/I96L/K127E/L162R/M171V/N62H/P40V/Q125Y/R42H/S133A/S149N/S66Y/V115G/V209L/W38E); details: read-out: DRB1*04:01 binding capacity, WT peptide (IC50 nM)
T3 construct: EBV transformed homozygous cell lines were used as sources of MHC molecules; endogenous in cells; host or cells: EBV transformed homozygous cell lines

[1] = wild-type (unmodified Arg) 15-mer peptide, purified HLA-DRB1*01:01
[2] = wild-type (unmodified Arg) 15-mer peptide, purified HLA-DRB1*04:01

## CC(C)C[C@H](NC(=O)[C@H](CCCCN)NC(=O)[C@H](CC(C)C)NC(=O)[C@@H](NC(=O)[C@H](CC(N)=O)NC(=O)[C@H](CCC(N)=O)NC(=O)[C@H](CCCCN)NC(=O)[C@@H](NC(=O)[C@H](Cc1ccc(O)cc1)NC(=O)[C@H](CCCCN)NC(=O)[C@@H]1CCCN1)C(C)C)[C@@H](C)O)C(=O)N[C@@H](C)C(=O)N[C@H](C(=O)O)[C@@H](C)O [HA 307–319, reference compound]
DPB1*04:01
  IC50: 39.1 µM

## SAFAGLGPREKGPDP [Collagen 1221 WT]
HLA-DRB1*01:01; [1]
  IC50: 50 nM
HLA-DRB1*04:01; [2]
  IC50: > 40000 nM

## SAVRLRSSVPGVRLL [Vimentin 66 WT]
HLA-DRB1*01:01
  IC50: 7.9 nM
HLA-DRB1*04:01
  IC50: 5060 nM

## SKPDLTAALRDVRQQ [Vimentin 261 WT]
HLA-DRB1*01:01
  IC50: 5190 nM
HLA-DRB1*04:01
  IC50: > 40000 nM

## SPGGVYATRSSAVRL [Vimentin 56 WT]
HLA-DRB1*01:01
  IC50: 7.2 nM
HLA-DRB1*04:01
  IC50: 1150 nM

## SSRSYVTTSTRTYSL [Vimentin 26 WT]
HLA-DRB1*01:01
  IC50: 70 nM
HLA-DRB1*04:01
  IC50: 245 nM

## STEYRRQVQSLTCEV [Vimentin 316 WT]
HLA-DRB1*01:01; [1]
  IC50: 138 nM
HLA-DRB1*04:01; [2]
  IC50: 600 nM

## TAALRDVRQQYESVA [Vimentin 266 WT]
HLA-DRB1*01:01
  IC50: 771 nM
HLA-DRB1*04:01
  IC50: 6320 nM

## TGFPGAAGRVGPPGS [Collagen 896 WT]
HLA-DRB1*01:01; [1]
  IC50: 431 nM
HLA-DRB1*04:01; [2]
  IC50: > 40000 nM

## TGPKGARGAQGPPGA [Collagen 881 WT]
HLA-DRB1*01:01; [1]
  IC50: 17000 nM
HLA-DRB1*04:01; [2]
  IC50: > 40000 nM

## THSKRTLLIKTVETR [Vimentin 436 WT]
HLA-DRB1*01:01; [1]
  IC50: 109 nM
HLA-DRB1*04:01; [2]
  IC50: 6220 nM

## TIGRLQDEIQNMKEE [Vimentin 361 WT]
HLA-DRB1*01:01; [1]
  IC50: 13700 nM
HLA-DRB1*04:01; [2]
  IC50: 21800 nM

## TLLIKTVETRDGQVI [Vimentin 441 WT]
HLA-DRB1*01:01; [1]
  IC50: 826 nM
HLA-DRB1*04:01; [2]
  IC50: 6020 nM

## TNEKVELQELNDRFA [Vimentin 101 WT]
HLA-DRB1*01:01
  IC50: 5150 nM
HLA-DRB1*04:01
  IC50: 17900 nM

## TNESLERQMREMEEN [Vimentin 336 WT]
HLA-DRB1*01:01; [1]
  IC50: 15900 nM
HLA-DRB1*04:01; [2]
  IC50: > 40000 nM

## TNLDSLPLVDTHSKR [Vimentin 426 WT]
HLA-DRB1*01:01; [1]
  IC50: 904 nM
HLA-DRB1*04:01; [2]
  IC50: > 40000 nM

## TVETRDGQVINETSQ [Vimentin 446 WT]
HLA-DRB1*01:01
  IC50: 17900 nM
HLA-DRB1*04:01
  IC50: 9590 nM

## VDQLTNDKARVEVER [Vimentin 161 WT]
HLA-DRB1*01:01
  IC50: 16500 nM
HLA-DRB1*04:01
  IC50: 31600 nM

## VEVERDNLAEDIMRL [Vimentin 171 WT]
HLA-DRB1*01:01
  IC50: 12500 nM
HLA-DRB1*04:01
  IC50: 16400 nM

## VLLTLLVAAVLRCQG [Collagen 11 WT]
HLA-DRB1*01:01; [1]
  IC50: 148 nM
HLA-DRB1*04:01; [2]
  IC50: > 40000 nM

## VSSSSYRRMFGGPGT [Vimentin 6 WT]
HLA-DRB1*01:01
  IC50: 25 nM
HLA-DRB1*04:01
  IC50: 725 nM

## VTTSTRTYSLGSALR [Vimentin 31 WT]
HLA-DRB1*01:01
  IC50: 5 nM
HLA-DRB1*04:01
  IC50: 1220 nM

## YATRSSAVRLRSSVP [Vimentin 61 WT]
HLA-DRB1*01:01
  IC50: 17 nM
HLA-DRB1*04:01
  IC50: 1600 nM

## YKSKFADLSEAANRN [Vimentin 291 WT]
HLA-DRB1*01:01
  IC50: 394 nM
HLA-DRB1*04:01
  IC50: 953 nM

## YRRMFGGPGTASRPS [Vimentin 11 WT]
HLA-DRB1*01:01
  IC50: 440 nM
HLA-DRB1*04:01
  IC50: 9750 nM
